From PubChem BioAssay AID256 (DTP/NCI, 2004)
Values joined by “and” are separate entries in the source; they are usually repeats but may differ in a detail not shown here. Equal entries are not always repeated. Toxic doses and inconclusive results are not listed. The calls were made as follows: active = survival T/C of 150% or more; inactive = T/C below 125% in these data.

Test system: CD2F1 mice, L1210 leukemia ip, survival T/C
Assay: NCI In Vivo Anticancer Drug Screen. Data for tumor model L1210 Leukemia (intraperitoneal) in CD2F1 (CDF1) mice
Conditions: higher = longer survival
How it was run: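 Vehicle-treated tumor-bearing mice served as controls (C) for compound-treated mice (T). Reported figure is T divided by C.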

[1] = endpoint: mean survival time, dose: 100.0 mg/kg/injection, schedule: Q01DX001 (ip), vehicle: Klucel (hydroxypropylcellulose) (HPC)
[2] = endpoint: mean survival time, dose: 100.0 mg/kg/injection, schedule: Q04DX002 (ip), vehicle: saline with Tween-80
[3] = endpoint: mean survival time, dose: 200.0 mg/kg/injection, schedule: Q01DX001 (ip), vehicle: Klucel (hydroxypropylcellulose) (HPC)
[4] = endpoint: mean survival time, dose: 100.0 mg/kg/injection, schedule: Q04DX003 (ip), vehicle: saline
[5] = endpoint: mean survival time, dose: 200.0 mg/kg/injection, schedule: Q04DX003 (ip), vehicle: saline
[6] = endpoint: mean survival time, dose: 100.0 mg/kg/injection, schedule: Q01DX001 (ip), vehicle: saline with Tween-80
[7] = endpoint: mean survival time, dose: 25.0 mg/kg/injection, schedule: Q01DX009 (ip), vehicle: saline with Tween-80
[8] = endpoint: mean survival time, dose: 50.0 mg/kg/injection, schedule: Q01DX009 (ip), vehicle: saline with Tween-80
[9] = endpoint: mean survival time, dose: 100.0 mg/kg/injection, schedule: Q01DX009 (ip), vehicle: saline with Tween-80
[10] = endpoint: mean survival time, dose: 200.0 mg/kg/injection, schedule: Q01DX009 (ip), vehicle: saline with Tween-80
[11] = endpoint: mean survival time, dose: 6.25 mg/kg/injection, schedule: Q01DX009 (ip), vehicle: saline with Tween-80
[12] = endpoint: mean survival time, dose: 12.5 mg/kg/injection, schedule: Q01DX009 (ip), vehicle: saline with Tween-80
[13] = endpoint: mean survival time, dose: 200.0 mg/kg/injection, schedule: Q01DX001 (ip), vehicle: saline with Tween-80
[14] = endpoint: mean survival time, dose: 400.0 mg/kg/injection, schedule: Q01DX001 (ip), vehicle: saline with Tween-80

Measured: T/C

CN(C)C1c2ccccc2-c2ccc(NC(=O)C(F)(F)F)cc21 (stereo not drawn)
inactive: endpoint: mean survival time, dose: 50.0 mg/kg/injection, schedule: Q01DX001 (ip), vehicle: carboxymethylcellulose (CMC) 107 % of control | endpoint: mean survival time, dose: 100.0 mg/kg/injection, schedule: Q01DX001 (ip), vehicle: carboxymethylcellulose (CMC) 92 % of control | endpoint: mean survival time, dose: 200.0 mg/kg/injection, schedule: Q01DX001 (ip), vehicle: carboxymethylcellulose (CMC) 95 % of control | endpoint: mean survival time, dose: 400.0 mg/kg/injection, schedule: Q01DX001 (ip), vehicle: carboxymethylcellulose (CMC) 113 % of control

Cc1nc(N)nc2c1CCC(=O)N2C
inactive: endpoint: mean survival time, dose: 50.0 mg/kg/injection, schedule: Q04DX002 (ip), vehicle: saline with Tween-80 97 % of control | [1] 102 % of control | [2] 97 % of control | [3] 90 % of control | endpoint: mean survival time, dose: 200.0 mg/kg/injection, schedule: Q04DX002 (ip), vehicle: saline with Tween-80 97 % of control

NC(CCC(=O)OCc1ccccc1)C(=O)OCc1ccccc1 (stereo not drawn)
inactive: endpoint: mean survival time, dose: 50.0 mg/kg/injection, schedule: Q01DX009 (ip), vehicle: saline 106 % of control | endpoint: mean survival time, dose: 100.0 mg/kg/injection, schedule: Q01DX009 (ip), vehicle: saline 93 % of control | [4] 97 % of control | endpoint: mean survival time, dose: 200.0 mg/kg/injection, schedule: Q01DX009 (ip), vehicle: saline 87 % of control | [5] 108 % of control

C1CC[N-]CC1.C1CC[N-]CC1.C1CC[N-]CC1.C1CC[N-]CC1.[Co].[N-]=C=S.[N-]=C=S
inactive: [2] 123 % of control

COc1cccc(CC2NCCc3c2[nH]c2ccccc32)c1 (stereo not drawn)
inactive: endpoint: mean survival time, dose: 25.0 mg/kg/injection, schedule: Q01DX001 (ip), vehicle: saline with Tween-80 98 % of control | endpoint: mean survival time, dose: 50.0 mg/kg/injection, schedule: Q01DX001 (ip), vehicle: saline with Tween-80 90 % of control | [6] 87 % of control

CC(=O)c1ccc(CCCCCCCC(=O)O)o1
inactive: endpoint: mean survival time, dose: 50.0 mg/kg/injection, schedule: Q01DX001 (ip), vehicle: Klucel (hydroxypropylcellulose) (HPC) 97 % of control | [1] 101 % of control | [3] 94 % of control

O=C1C2(Cl)C(Cl)=C(Cl)C1(Cl)C1(Cl)C(Cl)=C(Cl)C(=O)C21Cl (stereo not drawn)
inactive: endpoint: mean survival time, dose: 10.0 mg/kg/injection, schedule: Q01DX009 (ip), vehicle: saline with Tween-80 94 % of control | endpoint: mean survival time, dose: 20.0 mg/kg/injection, schedule: Q01DX009 (ip), vehicle: saline with Tween-80 94 % of control | endpoint: mean survival time, dose: 40.0 mg/kg/injection, schedule: Q01DX009 (ip), vehicle: saline with Tween-80 92 % of control

CCOC(=O)c1ncsc1NC(=O)NC
inactive: endpoint: mean survival time, dose: 75.0 mg/kg/injection, schedule: Q01DX001 (ip), vehicle: saline 101 % of control | endpoint: mean survival time, dose: 150.0 mg/kg/injection, schedule: Q01DX001 (ip), vehicle: saline 100 % of control

Nc1nc2c(ncn2C2OC(CO)C(O)C2O)c(=O)[nH]1 (stereo not drawn)
inactive: [7] 98 % of control and 105 % of control | [8] 101 % of control and 103 % of control | [9] 98 % of control and 102 % of control | [10] 95 % of control and 104 % of control | endpoint: mean survival time, dose: 400.0 mg/kg/injection, schedule: Q01DX009 (ip), vehicle: saline with Tween-80 101 % of control and 104 % of control | endpoint: mean survival time, dose: 800.0 mg/kg/injection, schedule: Q01DX009 (ip), vehicle: saline with Tween-80 98 % of control and 110 % of control | endpoint: median survival time, dose: 1000.0 mg/kg/injection, schedule: Q01DX009 (ip), vehicle: saline with Tween-80 106 % of control | endpoint: median survival time, dose: 1500.0 mg/kg/injection, schedule: Q01DX009 (ip), vehicle: saline with Tween-80 89 % of control | endpoint: median survival time, dose: 2000.0 mg/kg/injection, schedule: Q01DX009 (ip), vehicle: saline with Tween-80 91 % of control and 108 % of control

O=C1C=CC(=O)N1c1ccc2c(c1)OCO2
inactive: [11] 91 % of control | [12] 86 % of control

NC(=O)c1cn(C2OC(CO)C(O)C2O)c2ncn3ncnc3c12 (stereo not drawn)
inactive: endpoint: mean survival time, dose: 3.13 mg/kg/injection, schedule: Q01DX005 (ip), vehicle: water 113 % of control | endpoint: mean survival time, dose: 6.25 mg/kg/injection, schedule: Q01DX005 (ip), vehicle: water 112 % of control | endpoint: mean survival time, dose: 12.5 mg/kg/injection, schedule: Q01DX005 (ip), vehicle: water 116 % of control | endpoint: mean survival time, dose: 50.0 mg/kg/injection, schedule: Q01DX005 (ip), vehicle: water 98 % of control

CCCCOC(=O)CC(O)C(=O)OCCCC (stereo not drawn)
inactive: [8] 113 % of control | [9] 107 % of control | [10] 103 % of control

CCCCS.[Hg]
inactive: [11] 95 % of control | [12] 96 % of control | [7] 95 % of control

CNC(=S)NNc1ccc(Cl)cc1
inactive: endpoint: mean survival time, dose: 12.5 mg/kg/injection, schedule: Q01DX009 (ip), vehicle: other 96 % of control | endpoint: mean survival time, dose: 25.0 mg/kg/injection, schedule: Q01DX009 (ip), vehicle: other 94 % of control | endpoint: mean survival time, dose: 50.0 mg/kg/injection, schedule: Q01DX009 (ip), vehicle: other 93 % of control | endpoint: mean survival time, dose: 100.0 mg/kg/injection, schedule: Q01DX009 (ip), vehicle: other 104 % of control

C=C=CCCCCOC1CCCCO1 (stereo not drawn)
inactive: [6] 89 % of control | [13] 89 % of control | [14] 89 % of control

NC(=O)c1ccc[n+](CCN(CCCl)c2ccc3ccccc3c2)c1
inactive: endpoint: mean survival time, dose: 1.25 mg/kg/injection, schedule: Q01DX009 (ip), vehicle: Klucel (hydroxypropylcellulose) (HPC) 104 % of control | endpoint: mean survival time, dose: 2.5 mg/kg/injection, schedule: Q01DX009 (ip), vehicle: Klucel (hydroxypropylcellulose) (HPC) 107 % of control | endpoint: mean survival time, dose: 5.0 mg/kg/injection, schedule: Q01DX009 (ip), vehicle: Klucel (hydroxypropylcellulose) (HPC) 102 % of control

Cn1c(=O)c2c(ncn2C)n(C)c1=O.[Cl][Pt]([Cl])[Cl]
inactive: endpoint: mean survival time, dose: 3.13 mg/kg/injection, schedule: Q04DX003 (ip), vehicle: saline 112 % of control | endpoint: mean survival time, dose: 3.13 mg/kg/injection, schedule: Q04DX003 (ip), vehicle: water 98 % of control | endpoint: mean survival time, dose: 6.25 mg/kg/injection, schedule: Q04DX003 (ip), vehicle: saline 104 % of control | endpoint: mean survival time, dose: 6.25 mg/kg/injection, schedule: Q04DX003 (ip), vehicle: water 95 % of control | endpoint: mean survival time, dose: 12.5 mg/kg/injection, schedule: Q04DX003 (ip), vehicle: saline 106 % of control | endpoint: mean survival time, dose: 12.5 mg/kg/injection, schedule: Q04DX003 (ip), vehicle: water 104 % of control | endpoint: mean survival time, dose: 25.0 mg/kg/injection, schedule: Q04DX003 (ip), vehicle: saline 102 % of control | endpoint: mean survival time, dose: 25.0 mg/kg/injection, schedule: Q04DX003 (ip), vehicle: water 102 % of control | endpoint: mean survival time, dose: 50.0 mg/kg/injection, schedule: Q04DX003 (ip), vehicle: saline 106 % of control | endpoint: mean survival time, dose: 50.0 mg/kg/injection, schedule: Q04DX003 (ip), vehicle: water 104 % of control | [4] 112 % of control | endpoint: mean survival time, dose: 100.0 mg/kg/injection, schedule: Q04DX003 (ip), vehicle: water 118 % of control | [5] 111 % of control

CNC(=O)OCc1c(COC(=O)NC)c(-c2ccc(Cl)c(Cl)c2)n2c1CCC2
inactive: endpoint: mean survival time, dose: 12.5 mg/kg/injection, schedule: Q01DX009 (ip), vehicle: Klucel (hydroxypropylcellulose) (HPC) 109 % of control | endpoint: mean survival time, dose: 25.0 mg/kg/injection, schedule: Q01DX009 (ip), vehicle: Klucel (hydroxypropylcellulose) (HPC) 110 % of control | endpoint: mean survival time, dose: 50.0 mg/kg/injection, schedule: Q01DX009 (ip), vehicle: Klucel (hydroxypropylcellulose) (HPC) 107 % of control | endpoint: mean survival time, dose: 100.0 mg/kg/injection, schedule: Q01DX009 (ip), vehicle: Klucel (hydroxypropylcellulose) (HPC) 105 % of control

Cc1cccc(N/N=C2\CCSc3ccccc32)c1
inactive: [6] 100 % of control | [13] 100 % of control | [14] 103 % of control

CC1(C)C/C(=C\c2ccccc2[N+](=O)[O-])C(=O)c2ccccc21
inactive: endpoint: mean survival time, dose: 100.0 mg/kg/injection, schedule: Q04DX003 (ip), vehicle: acetone 92 % of control | endpoint: mean survival time, dose: 200.0 mg/kg/injection, schedule: Q04DX003 (ip), vehicle: acetone 90 % of control | endpoint: mean survival time, dose: 400.0 mg/kg/injection, schedule: Q04DX003 (ip), vehicle: acetone 93 % of control

CCOC(=O)C(Cc1ccccc1Cl)(NC(C)=O)C(=O)OCC
inactive: endpoint: mean survival time, dose: 100.0 mg/kg/injection, schedule: Q04DX003 (ip), vehicle: saline with Tween-80 100 % of control | endpoint: mean survival time, dose: 200.0 mg/kg/injection, schedule: Q04DX003 (ip), vehicle: saline with Tween-80 102 % of control | endpoint: mean survival time, dose: 400.0 mg/kg/injection, schedule: Q04DX003 (ip), vehicle: saline with Tween-80 91 % of control
